Data as given in patent US20110165660A1, “ENGINEERED MICROORGANISMS WITH ENHANCED FERMENTATION ACTIVITY” (VERDEZYNE, INC., priority 2009, published 2011).

Tests used:
[1] = target: S. cerevisiae ZWF1 variant A51D (mutant 4) (Saccharomyces cerevisiae, UniProt P11412, A51D); assay: Cofactor preference of ZWF1 mutants (NAD+ vs NADP+); format: biochemical; details: initial kinetic screening, preliminary cofactor phenotype
Procedure: (§1) Strain BY4742 zwf1 (ATCC Cat. No. 4011971; Winzeler E A, et al. Science 285: 901-906, 1999. PubMed: 10436161) was used as the base strain for all ZWF1 assays. The assays were performed as follows: A 5 ml overnight of the strain expressing the ZWF1 gene was grown in SCD-ura. A 50 ml culture of the strain was then grown for about 18 hours from an initial OD600 of about 0.2 until it had reached about OD600 of about 4. The cells were centrifuged at 1046×g washed twice with 25 ml cold sterile water, and resuspended in 2 ml/g Yper Plus (Thermo Scientific) plus 1×protease inhibitors (EDTA-free). The cells were allowed to lyse at room temperature for about 30 minutes with constant rotation of the tubes. The lysate was centrifuged at 16,100×g for 10 minutes at 4° C. and the supernatants were transferred to a new 1.5 ml microcentrifuge tube. Quantification of the lysates was performed using the Coomassie-Plus kit (Thermo Scientific, San Diego, Calif.) as directed by the manufacturer.
(§2) The reaction was started with 20 mM glucose-6-phosphate and the reaction was monitored at A340. The specific activity was measured as the μmol substrate/min/mg protein.
Site-directed mutagenesis was used to alter of ZWF1 so that the altered ZWF1 could also utilize NAD+, thereby improving the REDOX balance within the cell. […]

[2] = target: S. cerevisiae ZWF1 (glucose-6-phosphate dehydrogenase) variant A24G (mutant 1) (Saccharomyces cerevisiae, UniProt P11412, A24G); assay: Cofactor usage of ZWF1 mutants (initial kinetic screening, NAD+ vs NADP+); format: biochemical; details: preliminary cofactor phenotype
Procedure: as §1, §2
(§3) Site directed mutagenesis reactions were performed in the same manner for all mutations, and for mutants which include more than one mutation, each mutation was performed sequentially. About 50 ng of plasmid DNA was added to 1×Pfu Ultra II buffer, 0.3 mM dNTPs, […] site directed mutagenesis specific primers, and 1 U Pfu Ultra II polymerase (Agilent, La Jolla, Calif.) in a 50 μl reaction mix. The reaction was cycled at 95° C. for 10 minutes, followed by 15 rounds of 95° C. for 15 seconds, 55° C. for 40 seconds, and 72° C. for 3 minutes. A final 10 minute extension reaction at 72° C. was also included. The PCR reaction mixture was then digested with 30 U of Dpnl for about 2 hours and 5 μl of the digested PCR reaction mixture was used to transform competent DH5α (Zymo Research, Orange, Calif.) and plated onto LB plates containing the appropriate antibiotics. The table below lists mutants generated in a first round of mutagenesis.

[3] = target: S. cerevisiae ZWF1 (glucose-6-phosphate dehydrogenase) variant A24G/T28G (mutant 2) (Saccharomyces cerevisiae, UniProt P11412, A24G/T28G); assay: as above; format: biochemical; details: preliminary cofactor phenotype
Procedure: as §1, §2, §3

[4] = target: S. cerevisiae ZWF1 (glucose-6-phosphate dehydrogenase) variant A51N (mutant 3) (Saccharomyces cerevisiae, UniProt P11412, A51N); assay: as above; format: biochemical; details: preliminary cofactor phenotype
Procedure: as §1, §2, §3

[5] = target: S. cerevisiae ZWF1 (glucose-6-phosphate dehydrogenase) variant F33Y (mutant 8) (Saccharomyces cerevisiae, UniProt P11412, F33Y); assay: as above; format: biochemical; details: preliminary cofactor phenotype
Procedure: as §1, §2, §3

[6] = target: S. cerevisiae ZWF1 (glucose-6-phosphate dehydrogenase) variant K46R (mutant 6) (Saccharomyces cerevisiae, UniProt P11412, K46R); assay: as above; format: biochemical; details: preliminary cofactor phenotype
Procedure: as §1, §2, §3

[7] = target: S. cerevisiae ZWF1 (glucose-6-phosphate dehydrogenase) variant T28F (mutant 5) (Saccharomyces cerevisiae, UniProt P11412, T28F); assay: as above; format: biochemical; details: preliminary cofactor phenotype
Procedure: as §1, §2, §3

[8] = target: S. cerevisiae ZWF1 (glucose-6-phosphate dehydrogenase) variant Y40L (mutant 7) (Saccharomyces cerevisiae, UniProt P11412, Y40L); assay: as above; format: biochemical; details: preliminary cofactor phenotype
Procedure: as §1, §2, §3

[9] = substrate: OC1OC[C@@H](O)[C@H](O)[C@H]1O; assay: purified protein, by the assay type; format: biochemical, Ruminococcus flavefaciens / Piromyces; details: other: xylose 40-500 mM, pH 7.5, about 30° C.
Procedure: Approximately 20 μg of soluble whole cell extract from each transformed cell line was prepared using Y-PER plus reagent as described above was incubated in a solution containing about 100 mM Tris, pH 7.5, 10 mM MgCl2, 0.15 mM NADH (Sigma, St. Louis, Mo.), and 2 U sorbitol dehydrogenase (SDH) (Roche, Indianapolis, Ind.) at about 30° C. […] A Beckman DU-800 spectrophotometer was utilized with an Enzyme Mechanism software package (Beckman Coulter, Inc, Brea, Calif.), and the change in the A340 was monitored for 2-3 minutes.

[10] = substrate: OC1OC[C@@H](O)[C@H](O)[C@H]1O; assay: purified protein, by the assay type; format: biochemical, Ruminococcus flavefaciens / Piromyces; details: other: xylose 40-500 mM, pH 7.5, about 30° C.; remark: listed apart in the source
Text: To generate the chimeric XI-Rp10 gene, the 5′ primer KAS/XI-R-P6-10 and 3′ primer KAS/3-XI-RF-NATIVE were first used to add nucleotides 16-30 from the XI-P gene to the 5′ end of the XI-R gene keeping the remainder of the XI-R gene in-frame. […] Following PCR purification of the resulting XI-Rp6-10 amplified product, 5′ primer KAS/XI-R-P1-10 and either the 3′ primer KAS/3-XI-RF-NATIVE or the 3′ primer KAS/3-XI-RF-NATIVE-HIS oligonucleotides were used to add additional sequences.

[11] = substrate: OC1OC[C@@H](O)[C@H](O)[C@H]1O; assay: cells, lysate or membranes; format: biochemical, Ruminococcus flavefaciens; details: other: xylose about 40 to about 500 mM, pH 7.5, about 30° C.
Procedure: A series of specific point mutations were made to the “hot rod” Ruminococcus xylose isomerase gene using site-directed mutagenesis.
Site directed mutagenesis was performed as follows: About 50 ng of template DNA was added to 1×Pfu Ultra II buffer, 0.3 mM dNTPs, […] of the relevant mutagenesis primers depending on the mutant being constructed and 1 U Pfu Ultra 11 polymerase (Agilent, La Jolla, Calif.) in a 50 μl reaction mix. The “hot rod” Ruminococcus xylose isomerase gene was used as the template DNA for constructing single point mutation variants. Previously engineered mutants sometimes were used as “template” DNA to generate other mutants. Each reaction was PCR cycled as follows: 95° C. 10 minutes followed by 30 rounds of 95° C. for 20 seconds, 55° C. for 30 seconds, and 72° C. for 5 minutes. A final 5 minute extension reaction at 72° C. was also included. Following PCR, 1.5 μl of Dpnl (NEB, Ipswich, Mass.) was added and allowed to digest the reaction mixture for 1 to 1.5 hours at 37° C. 5 μl of this mixture was then used to transform NEB-5a cells (NEB, Ipswich, Mass.) and plated onto LB media with ampicillin (100 μg/ml). (Table below discloses SEQ ID NOS 229-256, respectively, in order of appearance)

[12] = substrate: OC1OC[C@@H](O)[C@H](O)[C@H]1O; assay: purified protein, by the assay type; format: biochemical, Ruminococcus flavefaciens / Piromyces; details: other: xylose 40-500 mM, pH 7.5, about 30° C.; remark: listed apart in the source
Text: Following PCR purification of the resulting XI-Rp6-15 amplified product, 5′ primer KAS/XI-R-P1-15 either 3′ primer KAS/3-XI-RF-NATIVE or 3′ primer KAS/3-XI-RF-NATIVE-HIS oligonucleotides were used to add additional sequences.

Chain of S. cerevisiae ZWF1 (glucose-6-phosphate dehydrogenase) variant Y40L (mutant 7) (P11412 whole entry Y40L): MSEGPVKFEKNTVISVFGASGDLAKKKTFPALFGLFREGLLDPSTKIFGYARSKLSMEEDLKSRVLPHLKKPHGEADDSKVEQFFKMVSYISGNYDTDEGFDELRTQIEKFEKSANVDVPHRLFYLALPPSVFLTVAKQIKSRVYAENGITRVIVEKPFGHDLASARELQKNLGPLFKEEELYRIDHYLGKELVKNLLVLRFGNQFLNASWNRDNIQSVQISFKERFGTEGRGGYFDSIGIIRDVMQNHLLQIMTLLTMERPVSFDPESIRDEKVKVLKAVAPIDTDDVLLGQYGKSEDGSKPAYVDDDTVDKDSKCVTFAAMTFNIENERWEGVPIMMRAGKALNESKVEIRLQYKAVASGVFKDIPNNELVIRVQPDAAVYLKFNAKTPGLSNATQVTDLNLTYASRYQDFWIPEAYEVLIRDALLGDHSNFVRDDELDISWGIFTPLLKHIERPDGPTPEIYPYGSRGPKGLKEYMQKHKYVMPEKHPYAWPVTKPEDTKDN
Chain of S. cerevisiae ZWF1 (glucose-6-phosphate dehydrogenase) variant A24G/T28G (mutant 2) (P11412 whole entry A24G/T28G): as the sequence (P11412 whole entry Y40L) above, with A24G, T28G, L40Y counted along it
Chain of S. cerevisiae ZWF1 (glucose-6-phosphate dehydrogenase) variant F33Y (mutant 8) (P11412 whole entry F33Y): as the sequence (P11412 whole entry Y40L) above, with F33Y, L40Y counted along it
Chain of S. cerevisiae ZWF1 (glucose-6-phosphate dehydrogenase) variant A24G (mutant 1) (P11412 whole entry A24G): as the sequence (P11412 whole entry Y40L) above, with A24G, L40Y counted along it
Chain of S. cerevisiae ZWF1 (glucose-6-phosphate dehydrogenase) variant A51N (mutant 3) (P11412 whole entry A51N): as the sequence (P11412 whole entry Y40L) above, with L40Y, A51N counted along it
Chain of S. cerevisiae ZWF1 (glucose-6-phosphate dehydrogenase) variant T28F (mutant 5) (P11412 whole entry T28F): as the sequence (P11412 whole entry Y40L) above, with T28F, L40Y counted along it
Chain of S. cerevisiae ZWF1 (glucose-6-phosphate dehydrogenase) variant K46R (mutant 6) (P11412 whole entry K46R): as the sequence (P11412 whole entry Y40L) above, with L40Y, K46R counted along it
Chain of S. cerevisiae ZWF1 variant A51D (mutant 4) (P11412 whole entry A51D): as the sequence (P11412 whole entry Y40L) above, with L40Y, A51D counted along it

Molecule: NC(=O)c1ccc[n+]([C@@H]2O[C@H](COP(=O)(O)OP(=O)(O)OC[C@H]3O[C@@H](n4cnc5c(N)ncnc54)[C@H](O)[C@@H]3O)[C@@H](O)[C@H]2O)c1 [NAD+]
- NAD+ usage [1]: Yes
- NAD+ usage [2]: No
- NAD+ usage [3]: No
- NAD+ usage [4]: No
- NAD+ usage [5]: No
- NAD+ usage [6]: No
- NAD+ usage [7]: No
- NAD+ usage [8]: No

Molecule: NC(=O)c1ccc[n+]([C@@H]2O[C@H](COP(=O)(O)OP(=O)(O)OC[C@H]3O[C@@H](n4cnc5c(N)ncnc54)[C@H](OP(=O)(O)O)[C@@H]3O)[C@@H](O)[C@H]2O)c1 [NADP+]
- NADP+ usage [1]: No
- NADP+ usage [2]: Yes
- NADP+ usage [3]: No
- NADP+ usage [4]: Yes
- NADP+ usage [5]: Yes
- NADP+ usage [6]: Yes
- NADP+ usage [7]: Yes
- NADP+ usage [8]: Yes

B1: Ruminococcus flavefaciens xylose isomerase chimera XI-Rp5 (first 5 amino acids of Piromyces xylose isomerase), SEQ ID NO: 56 (Ruminococcus flavefaciens; … (protein)
chain: MAKEYFSNIGKIQYQGPKSTDPLSFKYYNPEEVINGKTMREHLKFALSWWHTMGGDGTDMFGCGTTDKTWGQSDPAARAKAKVDAAFEIMDKLSIDYYCFHDRDLSPEYGSLKATNDQLDIVTDYIKEKQGDKFKCLWGTAKCFDHPRFMHGAGTSPSADVFAFSAAQIKKALESTVKLGGNGYVFWGGREGYETLLNTNMGLELDNMARLMKMAVEYGRSIGFKGDFYIEPKPKEPTKHQYDFDTATVLGFLRKYGLDKDFKMNIEANHATLAQHTFQHELRVARDNGVFGSIDANQGDVLLGWDTDQFPTNIYDTTMCMYEVIKAGGFTNGGLNFDAKARRGSFTPEDIFYSYIAGMDAFALGFRAALKLIEDGRIDKFVADRYASWNTGIGADIIAGKADFASLEKYALEKGEVTASLSSGRQEMLESIVNNVLFSL
notes: E2 XI (CAB76571.1; MAKEY) on Ruminococcus XI
- Km [9]: 66.5 mM

B2: Ruminococcus flavefaciens xylose isomerase chimera XI-Rp10 (first 10 amino acids of Piromyces xylose isomerase), SEQ ID NO: 58 (Ruminococcus flavefaciens; … (protein)
chain: MAKEYFPQIQQYQGPKSTDPLSFKYYNPEEVINGKTMREHLKFALSWWHTMGGDGTDMFGCGTTDKTWGQSDPAARAKAKVDAAFEIMDKLSIDYYCFHDRDLSPEYGSLKATNDQLDIVTDYIKEKQGDKFKCLWGTAKCFDHPRFMHGAGTSPSADVFAFSAAQIKKALESTVKLGGNGYVFWGGREGYETLLNTNMGLELDNMARLMKMAVEYGRSIGFKGDFYIEPKPKEPTKHQYDFDTATVLGFLRKYGLDKDFKMNIEANHATLAQHTFQHELRVARDNGVFGSIDANQGDVLLGWDTDQFPTNIYDTTMCMYEVIKAGGFTNGGLNFDAKARRGSFTPEDIFYSYIAGMDAFALGFRAALKLIEDGRIDKFVADRYASWNTGIGADIIAGKADFASLEKYALEKGEVTASLSSGRQEMLESIVNNVLFSL
- Km [10]: 75.8 mM

B3: Ruminococcus flavefaciens xylose isomerase (hot rod) variant G179A (Ruminococcus flavefaciens; G179A) (protein)
chain: MEFFSNIGKIQYQGPKSTDPLSFKYYNPEEVINGKTMREHLKFALSWWHTMGGDGTDMFGCGTTDKTWGQSDPAARAKAKVDAAFEIMDKLSIDYYCFHDRDLSPEYGSLKATNDQLDIVTDYIKEKQGDKFKCLWGTAKCFDHPRFMHGAGTSPSADVFAFSAAQIKKALESTVKLGANGYVFWGGREGYETLLNTNMGLELDNMARLMKMAVEYGRSIGFKGDFYIEPKPKEPTKHQYDFDTATVLGFLRKYGLDKDFKMNIEANHATLAQHTFQHELRVARDNGVFGSIDANQGDVLLGWDTDQFPTNIYDTTMCMYEVIKAGGFTNGGLNFDAKARRGSFTPEDIFYSYIAGMDAFALGFRAALKLIEDGRIDKFVADRYASWNTGIGADIIAGKADFASLEKYALEKGEVTASLSSGRQEMLESIVNNVLFSL
notes: expressed in S. cerevisiae, soluble extract
- Km [11]: 83.82 mM

B4: Ruminococcus flavefaciens xylose isomerase chimera XI-Rp15 (first 15 amino acids of Piromyces xylose isomerase), SEQ ID NO: 60 (Ruminococcus flavefaciens; … (protein)
chain: MAKEYFPQIQKIKFEKSTDPLSFKYYNPEEVINGKTMREHLKFALSWWHTMGGDGTDMFGCGTTDKTWGQSDPAARAKAKVDAAFEIMDKLSIDYYCFHDRDLSPEYGSLKATNDQLDIVTDYIKEKQGDKFKCLWGTAKCFDHPRFMHGAGTSPSADVFAFSAAQIKKALESTVKLGGNGYVFWGGREGYETLLNTNMGLELDNMARLMKMAVEYGRSIGFKGDFYIEPKPKEPTKHQYDFDTATVLGFLRKYGLDKDFKMNIEANHATLAQHTFQHELRVARDNGVFGSIDANQGDVLLGWDTDQFPTNIYDTTMCMYEVIKAGGFTNGGLNFDAKARRGSFTPEDIFYSYIAGMDAFALGFRAALKLIEDGRIDKFVADRYASWNTGIGADIIAGKADFASLEKYALEKGEVTASLSSGRQEMLESIVNNVLFSL
- Km [12]: 49.3 mM
